{"source": "patent US20230301991A1", "about": "“COMPOUNDS FOR THE TREATMENT OF VIRAL INFECTIONS” (priority 2020, published 2023)", "key": {"[1]": {"test_system": "MERS", "type": "cell-based"}, "[2]": {"test_system": "Calu-3"}, "[3]": {"test_system": "SARS-CoV-2", "type": "cell-based"}, "[4]": {"test_system": "SARS-CoV-1", "type": "cell-based"}}, "data": [{"compound": "CNCc1ccc(-c2cc(-c3nc(-c4ccc(S(=O)(=O)C(C)C)cc4)cnc3N)on2)cc1", "note": "[Compound 1, 3-[3-(4-Methylaminomethyl-phenyl)-isoxazol-5-yl]-5-[4-(propane-2-sulfonyl)-phenyl]-pyrazin-2-ylamine]", "values": [{"measurement": "inhibition of virus replication", "setting": "[1]", "value": "dose dependent inhibition"}, {"measurement": "cell viability", "setting": "[2]", "value": "remains nearly unaffected"}, {"measurement": "inhibition in cells infected by SARS-CoV-2 compared with remdesivir", "setting": "[3]", "value": "comparable with that of the antiviral reference substance remdesivir"}, {"measurement": "inhibition of virus replication", "setting": "[3]", "value": "dose dependent inhibition"}, {"measurement": "inhibition of virus replication", "setting": "[4]", "value": "dose dependent inhibition"}]}]}
